Data from US9023844B2, “Heterocyclylpyri (mi) dinylpyrazole as fungicidals” (Bayer Intellectual Property GmbH, priority 2011, dated 2015).

How the values were obtained:
[1] = Determination of log P values by HPLC on a reverse phase column (C18), EEC-Directive 79/831 Annex V.A8 (Methods A, B, C); type: physicochemical
Summary of the method: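 Three C18 chromatographic methods following EEC-Directive 79/831 Annex V.A8 gave the logP values. Method C (UPLC, 2.1 mm column) ran at 40 °C and 0.8 mL/min with a 3.25 min 10–95% acetonitrile gradient. Methods A and B both ran at 55 °C and 2.0 mL/min, with gradients of 10–95% in 4.25 min and 5–95% in 1.70 min.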

Botrytis cinerea = experiment: Example N: in vivo preventive test on Botrytis cinerea (grey mould); conditions: dose of 500 ppm; gherkin plants; grading 4-5 days after contamination
Procedure: The active ingredients tested are prepared by homogenization in a mixture of acetone/tween/DMSO and then diluted with water to obtain the desired active material.
Gherkin plants (“Vert petit de Paris” variety), sown in starter cups on a 50/50 peat soil-pozzolana substrate and grown at 24° C., are treated at the Z11 cotyledon stage by spraying with the active ingredient prepared as described above. Plants, used as controls, are treated with the mixture of acetone/tween/DMSO/water not containing the active material.
After 24 hours, the plants are contaminated by spraying the cotyledons with an aqueous suspension of cryopreserved Botrytis cinerea spores (50 000 spores per ml). The spores are suspended in a nutrient solution composed of 10 g/L of PDB, 50 g/L of D-Fructose, 2 g/L of NH4NO3 and 1 g/L of KH2PO4. The contaminated gherkin plants are incubated at 17° C. and at 80% relative humidity.
Grading (% of efficacy) is carried out 4-5 days after the contamination, in comparison with the control plants.

Pyricularia oryzae = type: in vivo; conditions: in vivo
Puccinia recondita = conditions: in vivo
Septoria tritici = conditions: in vivo
Sphaerotheca fuliginea = conditions: in vivo
[2] = test system: DON/Acetyl-DON production by Fusarium graminearum; experiment: microbe, parasite or virus in culture; type: cell-based; conditions: at 50 μM
Fusarium graminearum = experiment: microbe, parasite or virus in culture; type: cell-based; conditions: at 50 μM
Phytophthora infestans = conditions: in vivo
Pyrenophora teres = conditions: in vivo
Uromyces appendiculatus = conditions: in vivo
[3] = Method B (HPLC, reverse phase C18)
[4] = Method A: HPLC, reverse phase C18, acetonitrile (0.1% formic acid)/water (0.09% formic acid) gradient

Row | SMILES | LogP [1, 3] | protection (% of efficacy) (Botrytis cinerea) | protection (% of efficacy) (Pyricularia oryzae) | protection (% of efficacy) (Puccinia recondita) | protection (% of efficacy) (Septoria tritici) | protection (% of efficacy) (Sphaerotheca fuliginea) | Inhibition of DON/AcDON in % [2] | Growth inhibition of Fusarium graminearum in % (Fusarium graminearum) | LogP [1, 4] | protection (% of efficacy) (Phytophthora infestans) | protection (% of efficacy) (Pyrenophora teres) | protection (% of efficacy) (Uromyces appendiculatus)
1 | O=C(Nc1cc(-c2c(-c3ccc(F)cc3)nn3c2OCCC3)ccn1)C1CC2CCC1C2 (centres unmarked) [Example 64] | 3.11 | 100% | 80% | 81% | 86% | 100% | 98% | 83% |  |  |  | 
2 | O=C(CN1CCCCC1)Nc1cc(-c2c(-c3ccc(F)cc3)nn3c2OCCC3)ccn1 [Example 66] | 1 |  | 80% | 81% | 79% | 94% |  |  |  |  |  | 
3 | C[S+]([O-])C(C)(C)C(=O)Nc1cc(-c2c(-c3ccc(F)cc3)nn3c2OCCC3)ccn1 (centres unmarked) [Example 68] | 1.69 | 80% | 80% | 81% | 93% | 89% |  |  |  |  |  | 
4 | CCC(=O)Nc1cc(-c2c(-c3ccc(F)cc3)nn3c2O[C@H](C)C[C@H]3C)ccn1 [Example 72] |  |  | 80% | 98% | 75% | 100% | 100% | 77% | 1.84 | 75% | 94% | 96%
5 | CCC(=O)Nc1cc(-c2c(-c3ccc(F)cc3)nn3c2OC(C)C3C)ccn1 (centres unmarked) [Example 75] |  |  | 90% | 88% |  | 100% | 100% | 88% | 1.67 | 95% | 98% | 100%
